Experiments:
[1] = test system: Plasmodium falciparum; test: Antiplasmodial activity against chloroquine-resistant Plasmodium falciparum K1; format: functional, organism-based
[2] = test system: L6; test: Cytotoxicity against rat L6 cells; format: ADME, cell-based
[3] = test system: Leishmania donovani; test: Antileishmanial activity against Leishmania donovani; format: functional, organism-based
[4] = Selectivity ratio of IC50 for rat L6 cells to IC50 for Leishmania donovani
[5] = test system: Plasmodium falciparum; test: Antimalarial activity against chloroquine-resistant Plasmodium falciparum Dd2 after 24 hrs by [3H]hypoxanthine uptake; format: functional, organism-based
[6] = Inhibition of GST-tagged Plasmodium falciparum MetAP 1B by […]

Compound | IC50 [1] | IC50 [2] | IC50 [3] | selectivity ratio [4] | IC50 [5] | IC50 [6]
Cc1nc(-c2ccccn2)nc(N(C)CCc2ccccc2)c1Cl | 3.5 µM | 62.5 µM | 0.32 µM | – | – | –
COc1ccc(CCNc2nc(-c3ccccn3)nc(C)c2Cl)cc1 | 2.5 µM | 8.7 µM | 0.43 µM | – | – | –
Cc1nc(-c2ccccn2)nc(N2CCCC2Cc2ccccc2)c1Cl (stereo unspecified) | 4.3 µM | 92.3 µM | 0.63 µM | – | – | –
Cc1nc(-c2ccccn2)nc(N2CCC(Cc3ccccc3)C2)c1Cl (stereo unspecified) | 3.1 µM | 88 µM | 0.38 µM | – | – | –
Cc1nc(-c2ccccn2)nc(NCC2CCOC2)c1Cl (stereo unspecified) | 15.3 µM | 125 µM | 10.5 µM | – | – | –
Cc1nc(-c2ccccn2)nc(NCc2ccc(S(C)(=O)=O)cc2)c1Cl | 10.1 µM | 93.6 µM | 10.7 µM | – | – | –
CCCCCCCCCCCCCCCCOP(=O)([O-])OCC[N+](C)(C)C [MILTEFOSINE] | – | – | 0.7 µM | – | – | –
Cc1nc(-c2ccccn2)nc(N2CCC(c3ccccc3)CC2)c1Cl | 8.9 µM | 183 µM | 1.1 µM | – | – | –
Cc1nc(-c2ccccn2)nc(N2CCCC2c2ccccc2)c1Cl (stereo unspecified) | 4.1 µM | 76.5 µM | 0.7 µM | – | – | –
Cc1nc(-c2ccccn2)nc(N2CCN(S(=O)(=O)c3ccccc3)CC2)c1Cl | 11.6 µM | 210 µM | 54.4 µM | – | – | –
Cc1nc(-c2ccccn2)nc(NCCC2CCCCC2)c1Cl | 2.3 µM | 49.5 µM | 0.26 µM | – | – | –
CCN(CC)CCCC(C)Nc1ccnc2cc(Cl)ccc12 (stereo unspecified) [CHLOROQUINE] | – | 70.1 µM | – | – | – | –
Cc1nc(-c2ccccn2)nc(N(C)C)c1Cl | 15.1 µM | 115 µM | 1.1 µM | > 10 | – | –
Cc1nc(-c2ccccn2)nc(NCCCc2ccccc2)c1Cl | 1.9 µM | 73.5 µM | 0.48 µM | – | – | –
Cc1nc(-c2ccccn2)nc(NCC2CCCCC2)c1Cl | 2.4 µM | 42.4 µM | 0.31 µM | – | – | –
Cc1nc(-c2ccccn2)nc(NCCc2ccccc2)c1Cl | 9.8 µM | 25.5 µM | 0.5 µM | – | 3.1 µM | 0.11 µM

Compound | IC50 [1] | IC50 [2] | IC50 [3] | selectivity ratio [4] | IC50 [5] | IC50 [6]
FC(F)(F)c1cc(NCCc2ccccc2)nc(-c2ccccn2)n1 | 8.2 µM | 74.2 µM | 2 µM | – | – | –
C[C@@H]1CC[C@H]2[C@@H](C)C(=O)O[C@@H]3O[C@@]4(C)CC[C@@H]1[C@]32OO4 [ARTEMISININ] | 0.005 µM | > 170 µM | – | – | – | –
Cc1nc(-c2ccccn2)nc(N)c1Cl | 20.8 µM | 85.3 µM | 3.3 µM | > 10 | – | –
Cc1cc(NCCc2ccccc2)nc(-c2ccccn2)n1 | 3.7 µM | 18.3 µM | 3 µM | – | – | –
Cc1nc(-c2ccccn2)nc(NCCc2ccncc2)c1Cl | 9.5 µM | 110 µM | 14.1 µM | – | – | –
Cc1nc(-c2ccccn2)nc(NCCNc2cc(C(F)(F)F)ccn2)c1Cl | 2.74 µM | 5.2 µM | 0.28 µM | – | – | –
Cc1nc(-c2ccccn2)nc(NCCc2ccc(S(C)(=O)=O)cc2)c1Cl | 8.2 µM | 104 µM | 7.4 µM | – | – | –
Cc1nc(-c2ccccn2)nc(N2CCN(CCO)CC2)c1Cl | 7.5 µM | 270 µM | 156 µM | – | – | –
Cc1nc(-c2ccccn2)nc(NCCc2ccc(Cl)cc2)c1Cl | 2 µM | 40.4 µM | 0.45 µM | – | – | –
Cc1nc(-c2ccccn2)nc(NCCS(=O)(=O)c2ccccc2)c1Cl | 10.4 µM | 72.8 µM | 11.4 µM | – | – | –
Cc1nc(-c2ccccn2)nc(NCCc2cccc(Cl)c2)c1Cl | 2.5 µM | 32.6 µM | 0.44 µM | – | – | –
Cc1nc(-c2ccccn2)nc(NCCc2ccccc2Cl)c1Cl | 6.3 µM | 91.6 µM | 1.2 µM | – | – | –
Cc1nc(-c2ccccn2)nc(N2CCC(c3ccccc3)C2)c1Cl (stereo unspecified) | 4.7 µM | 133 µM | 0.39 µM | – | – | –
CCN(CC)c1nc(-c2ccccn2)nc(C)c1Cl | 9 µM | 148 µM | 1.22 µM | > 10 | – | –
Cc1nc(-c2ccccn2)nc(NC2Cc3ccccc3C2)c1Cl | 3.7 µM | 33.2 µM | 0.42 µM | – | – | –
Cc1nc(-c2ccccn2)nc(NCc2ccccc2)c1Cl | 3.2 µM | 70.1 µM | 0.47 µM | – | – | –

— ChEMBL document CHEMBL1149084, “Synthesis and evaluation of 2-pyridyl pyrimidines with in vitro antiplasmodial and antileishmanial activity” (Bioorg Med Chem Lett, 2009)
